Results reported in patent US20100226857A1, “TUMOR CELL DIFFERENTIATION AGENTS AS CHEMICAL INHIBITORS AND TREATMENTS FOR INTRACELLULAR PARASITES” (priority 2006, published 2010).
Values after ≈ are worked out from the molar mass of the structure shown.

Legend:
T. gondii tachyzoites [1] = test: T. gondii tachyzoite proliferation assay in HS68 cells (tachyzoite count); type: cell-based, Toxoplasma gondii
Experimental: Parasite propagation—The RH strain of Toxoplasma gondii was grown in BM bovine macrophage cells or HS68 human foreskin fibroblast cells obtained from the American Type Culture Collection (Rockville, Md.). HS68 cells were grown in RPMI 1640 medium (Mediatech, Inc., Herndon, Va.) plus 10% fetal bovine serum (Atlanta Biologicals, Lawrenceville, Ga.), 1 mM sodium pyruvate and 100 U/ml each of penicillin and streptomycin. Parasites were harvested from infected cultures of HS68 cells growing in T-75 cm^2 flasks. After removing the culture medium, the cells were scraped into 5 ml of phosphate-buffered saline and a cell lysate obtained by passing through a 26-gauge needle. To purify the parasites, the cell lysate was filtered through a 3 micron (micrometer) filter.
(§1) Proliferation assays: HS68 cells were replica plated in 48-well dishes, and grown to confluence prior to infection with 5-10×10^4 freshly purified T. gondii tachyzoites/well. After 2 hours, the media and non-infective tachyzoites were removed, and replaced with RPMI medium containing 2% fetal bovine serum plus 1 mM sodium pyruvate, penicillin (100 U), streptomycin (100 U) and test agent or a vehicle control. The proliferation assays were terminated 48-72 hours post-infection when the untreated cells were heavily infected. All of the culture media were removed from the wells, and the tachyzoites in the media were fixed by dilution (1:1) into phosphate-buffered saline containing 10% formaldehyde. The tachyzoites were collected by brief centrifugation (30 seconds, […]) at room temperature using a tabletop microfuge. The tachyzoites were resuspended in 100 ul of phosphate-buffered saline, and duplicate aliquots were counted using a hemocytometer. […] The monolayer of HS68 cells in each well was fixed and stained for 5 minutes using a solution of 50% ethanol-5% formaldehyde-0.1% crystal violet in 0.85% sodium chloride, then rinsed with water, and air-dried. The minimum inhibitory concentration (MIC) of compounds that suppressed Toxoplasma-induced lysis of the HS68 cells was determined visually by counting the number of plaques/well in the monolayer.

T. gondii = test: Plaque suppression / protection of HS68 monolayer from T. gondii; type: cell-based, Toxoplasma gondii
Experimental: as §1

Cryptosporidium parvum = test: Real-time PCR analysis of C. parvum oocyst production in infected HCT-8 cells; type: cell-based; conditions: 48 hours, apicidin 70 ng/ml, SAHA 2.5 ug/ml; for % Reduction in oocysts numbers: vs 0.1% DMSO
Experimental: Monolayer cultures of HCT-8 human colon cells growing in 24-well plastic tissue culture dishes were infected with C. parvum oocysts for 3 hours. […] The cells were harvested, and DNA was extracted. The DNA was analyzed for the production of C. parvum oocysts from the infected cells using real-time PCR and DNA primers that specifically amplify the C. parvum oocysts wall protein (COWP).

[2] = tested on: MCF-7 human breast cancer cells; test: ESR free radical (ROS) measurement in MCF-7 cell suspensions with DMPO; type: cell-based; conditions: for ESR signal indicative of ROS production in MCF-7 cells: 10 uM NSC3852, 8 uM NSC2039; for relative peak heights of the ESR signals (mean±range, n=2): 1×10^6 MCF-7 cells, 5 min at 37° C.
Experimental: Free Radical Measurements: All ESR measurements were conducted using a Bruker EMIR spectrometer (Bruker Instruments Inc., Billerica, Mass.) and a flat-cell assembly. Hyperfine couplings were measured (to 0.1 G) directly from magnetic field separation using potassium tetraperoxochromate (K3CrO8) and 1,1-diphenyl-2-picrylhydrazyl as reference standards. The relative radical concentration was estimated by multiplying half of the peak height by (ΔHpp)^2, where (ΔHpp) represents peak-to-peak width. The Acquisit program was used for data acquisitions and analyses. MCF-7 cells (2.0×10^6 cells/60-mm^2 dish) were harvested 48 h after plating by trypsinization and collected at room temperature by centnfugation (225 g, 5 min). Cells were washed once with ice-cold PBS and resuspended in ice-cold PBS at 2×10^6 cells/ml. Radical production was measured in the presence of the spin trap 5,5-dimethyl-1-pyrroline-N-oxide (DMPO; Aldrich Chemical Co., Milwaukee, Wis.). DMPO (200 mM) and 1×10^6 cells test agents were mixed in 1.0 ml of PBS, incubated at 37° C. for 5 mm, and then transferred to a flat cell for ESR measurements.

MCF-7 cells [3] = test: Comet assay for DNA damage; type: cell-based, human
Experimental: Comet Analysis: The comet assay is a single-cell gel electrophoresis method for measuring DNA damage. MCF-7 cells (2×10^5/35-mm^2 dish) were treated 12 h after plating. Twenty-four hours later, the cells were harvested and resuspended (1.5×10^5 cells/ml) in ice-cold PBS. The PBS cell suspension (50 ul) was mixed with 500 ul of 42° C. low-melting point agarose, spread evenly (75 ul) onto a Comet Slide (Trevigen, Gaithersburg, Md.), and allowed to harden. The slides were then immersed in ice-cold lysis solution (Trevigen) for 45 mm to lyse the cells and then transferred to freshly prepared alkali solution (300 mM NaOH and 1 mM EDTA, […]) for 45 mM. at room temperature to denature the DNA. Electrophoresis was performed at 4° C. Slides were air-dried overnight at room temperature and then stained with SYBR Green (Trevigen). Comets were visualized by fluorescence microscopy at 630× magnification with the aid of an antifade solution. Comet images were analyzed using the LAI Automated Comet Assay Analysis System (Loats Associates, Inc., Westminster, Md.). DNA damage was quantified in 80 comets per treatment/experiment using the tail moment [Tail moment [(% DNA) (distance traveled)]].

MCF-7 cells [4] = test: Colorimetric determination of reduced and oxidized glutathione; type: cell-based, human; conditions: after 1 h, P<0.05
Experimental: Colorimetric Determination of Reduced and Oxidized Glutathione: The GSH and GSSG concentrations in MCF-7 cells (3×10^6 cell/60 mm^2 dish) were measured enzymatically using the GSHI GSSG-412 kit (Oxis Research, Portland, Oreg.). GSSG and GSH standards were prepared in 5% metaphosphoric acid. Cell samples were prepared in 5% metaphosphoric acid with or without 1-methyl-2-vinyl-pyridium trifluoromethane sulfonate, a GSH-specific scavenger. Ellman's reagent (5′,5-dithiobis-2-nitrobenzoic acid) reacts with GSH to form a product with an absorption maximum at 412 nm. GSSG was determined using glutathione reductase to reduce GSSG to GSH followed by reaction with Ellman's reagent.

MCF-7 cells [5] = test: Cell death ELISA (apoptosis); type: cell-based, human
Experimental: Cell Death Enzyme-Linked Immunosorbent Assay: We quantified cytoplasmic nucleosomes using the Cell Death Detection […] kit (Roche Molecular Biochemicals, Indianapolis, Ind.) in MCF-7 cells plated in triplicate into 96-well plates. The cytoplasmic fractions from attached cells in each well were assayed in duplicate for the presence of nucleosomes according to the directions from the suppliers. The apoptotic response was measured by the nucleosome-enrichment fraction calculated as the ratio of the absorbance (405 nm) of drug-treated cultures/solvent-exposed cultures.

T. gondii tachyzoites [6] = test: NSC3852 inhibition of T. gondii tachyzoite proliferation in HS68 cells (Example 4); type: cell-based; conditions: Toxoplasma gondii, approximately 60 hours, n=5 experiments, read-out: median IC50 for inhibition of T. gondii tachyzoite proliferation
Experimental: Briefly, T. gondii tachyzoites (1×10^5) were introduced into individual wells in a 48-well culture dish containing confluent monolayers of host cells (normal human skin fibroblasts HS68). Approximately 60 hours later, the tachyzoites were harvested from the medium and counted. […] Data points wee the average of triplicate determinations at every concentration of NSC3852 used.

[7] = tested on: HS68 human foreskin fibroblast cells; test: Toxicity to HS68 host cells; type: cell-based; conditions: 10 uM
T. gondii tachyzoites [8] = test: In vivo acute toxoplasmosis in mice (survival); set-up: species or system Toxoplasma gondii; CD-1 mice; conditions: TSA 0.5 mg/kg, SAHA 50 mg/kg, scriptaid 3.5 mg/kg i.p. once daily; valproic acid 300 mg/kg oral daily
Experimental: Specifically, female CD-1 mice (20 g) were inoculated in the sub-scapular region with 5,000 T. gondii tachyzoites on Day 0. […] The dose of scriptaid was not optimized in this experiment. In this study, valproic acid was administered orally in the drinking water at a dose of 300 mg/kg. Survival was monitored twice daily beginning on day 9 of the study. The results are depicted graphically in FIG. 5A and in tabular form in FIG. 5B.

human tumor cell lines = conditions: variety of human tumor cell lines in tissue culture; cited from earlier work

4-phenylbutyrate
IC50 (T. gondii tachyzoites [1]; RH strain T. gondii in HS68 cells, 48-well plate, 48-72 hours post-infection, mean+/-SEM, read-out: IC50 (uM) Tachyzoite Count): 5350 ± 2750 µM
MIC IC50 (ratio MIC/IC50) (T. gondii; MIC plaque suppression relative to IC50 tachyzoite count): 3.1
MIC (uM) Plaque Suppression (T. gondii; RH strain T. gondii in HS68 cells, 48-well plate, mean+/-SEM): 16,700 ± 3300 uM

CCC(=O)CCCCC[C@@H]1NC(=O)[C@H]2CCCCN2C(=O)[C@H]([C@@H](C)CC)NC(=O)[C@H](Cc2cn(OC)c3ccccc23)NC1=O [Apicidin]
number of oocysts/ml (mean ± S.D. n = 6) (Cryptosporidium parvum): 517.7 ± 417.1 oocysts/ml
% Reduction in oocysts numbers (Cryptosporidium parvum): 92.2%

Oc1cccc2cccnc12 [NSC2039, 8-quinolinol]
ESR signal indicative of ROS production in MCF-7 cells [2]: no signal was produced
DNA damage (comet tail moment) (MCF-7 cells [3]): did not induce DNA damage

O=Nc1ccc(O)c2ncccc12 [NSC3852, 5-nitroso-8-quinolinol]
relative peak heights of the ESR signals (mean±range, n=2) ([2]; 2 uM): 70±4 mm
ESR signal indicative of ROS production in MCF-7 cells [2]: indicative of the DMPO-OH adduct, was observed
relative peak heights of the ESR signals (mean±range, n=2) ([2]; 10 uM): 109±3 mm
decrease in [GSH]/[GSSG] compared with control cells (MCF-7 cells [4]): 20%
DNA damage (comet tail moment) (MCF-7 cells [3]): maximal at 24 h
time of peak apoptosis (MCF-7 cells [5]): 48 h
IC50 (T. gondii tachyzoites [6]): 0.079 µM

O=C(CCCCCCC(=O)Nc1ccccc1)NO [SAHA, suberoylanilide hydroxamic acid]
times tachyzoites are more sensitive than human tumor cells (T. gondii tachyzoites [1]; tachyzoite IC50 vs literature tumor cell concentrations): 10-200 times
state of HS68 monolayer of T. gondii-infected treated cells (T. gondii; 1 uM, 48 hours): completely intact
MIC (T. gondii; Toxoplasma gondii, RH strain T. gondii in HS68 cells, 48-well plate, mean+/-SEM, read-out: MIC (uM) Plaque Suppression): 0.4 ± 0.1 µM (≈ 0.106 µg/mL)
toxicity to HS68 cells at highest concentration tested [7]: no discernable toxicity
number of oocysts/ml (mean ± S.D. n = 6) (Cryptosporidium parvum): 252.8 ± 280 oocysts/ml
% Reduction in oocysts numbers (Cryptosporidium parvum): 96.2%
control of acute toxoplasmosis in mice (T. gondii tachyzoites [8]): showed in vivo efficacy
concentration reducing tumor cell numbers and inducing tumor cell apoptosis (human tumor cell lines): 1 to 20 µM
